Test results: ChEMBL document CHEMBL1201862, “PubChem BioAssay data set” (2004)
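How tested: cells in 96-well plates exposed to compound for 48 hours at five concentrations. At the GI50, growth is halved.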 The source made the active and inactive calls. Rule as the data show it: active = GI50 up to about 1.1 µM and inactive = higher.

Assays:
Assay in all cases: inhibition of tumour cell growth, NCI panel, 48 h
[1] = test system: CCRF-CEM
[2] = test system: HCT-116
[3] = test system: HCT-15
[4] = test system: Hs-578T
[5] = test system: MCF7
[6] = test system: MDA-MB-231
[7] = test system: MDA-N
[8] = test system: NCI-H460
[9] = test system: NCI/ADR-RES
[10] = test system: OVCAR-5
[11] = test system: PC-3
[12] = test system: SK-MEL-28
[13] = test system: SR
[14] = test system: T47D
[15] = test system: HCC 2998
[16] = test system: DMS-273
[17] = test system: HOP-18
[18] = test system: KM-20L2
[19] = test system: M19-MEL
[20] = test system: DLD-1

| Compound | GI50 [1] | GI50 [2] | GI50 [3] [µM] | GI50 [4] | GI50 [5] | GI50 [6] | GI50 [7] | GI50 [8] | GI50 [9] | GI50 [10] | GI50 [11] | GI50 [12] | GI50 [13] | GI50 [14] | GI50 [15] | GI50 [16] | GI50 [17] | GI50 [18] | GI50 [19] | GI50 [20] |
| --- | --- | --- | --- | --- | --- | --- | --- | --- | --- | --- | --- | --- | --- | --- | --- | --- | --- | --- | --- | --- |
| O=C(O)c1cc(-c2ccc3cc4c(cc3c2)OCO4)nc2ccccc12 | 11.3 µM (inactive) | 19.5 µM (inactive) | 12.3 | 49.2 µM (inactive) | 32.2 µM (inactive) | 31.4 µM (inactive) | 36 µM (inactive) | 12.9 µM (inactive) | 40.7 µM (inactive) | 28.5 µM (inactive) | 14.1 µM (inactive) | 47.5 µM (inactive) | 7.45 µM (inactive) | 54.8 µM (inactive) | – | – | – | – | – | – |
| CCN1CCC(O)(/C=C/c2ccc(C)cc2)C(C(=O)/C=C/c2ccc(C)cc2)C1 (stereo not drawn) | 1.73 µM (inactive) | 1.91 µM (inactive) | 4.06 | 1.86 µM (inactive) | 2.36 µM (inactive) | 2.07 µM (inactive) | 3.18 µM (inactive) | 4.45 µM (inactive) | 2.61 µM (inactive) | 10.5 µM (inactive) | 4.49 µM (inactive) | 5.86 µM (inactive) | 2.37 µM (inactive) | 2.82 µM (inactive) | 2.29 µM (inactive) | – | – | – | – | – |
| CCCS(=O)(=O)O | > 100 µM (inactive) | – | > 100 | > 100 µM (inactive) | > 100 µM (inactive) | > 100 µM (inactive) | – | > 100 µM (inactive) | > 100 µM (inactive) | > 100 µM (inactive) | > 100 µM (inactive) | > 100 µM (inactive) | > 100 µM (inactive) | > 100 µM (inactive) | – | – | – | – | – | – |
| Cc1ccc(NC(=S)NNC(=O)c2cc(-c3ccccc3)nc3ccccc23)cc1C | 27.5 µM (inactive) | 18.6 µM (inactive) | 20.4 | 36.1 µM (inactive) | 12.4 µM (inactive) | 20.3 µM (inactive) | 17.2 µM (inactive) | 19.5 µM (inactive) | 23 µM (inactive) | 26.8 µM (inactive) | 18.7 µM (inactive) | 25.8 µM (inactive) | 14.6 µM (inactive) | 0.853 µM (active) | 18.8 µM (inactive) | – | – | – | – | – |
| O=C(NC1C/C(=N/O)c2c(Br)sc(Br)c21)C(F)(F)F (stereo not drawn) | 20.2 µM (inactive) | 17.1 µM (inactive) | 24.8 | 11.2 µM (inactive) | 37.6 µM (inactive) | 13.1 µM (inactive) | 32.3 µM (inactive) | 25.4 µM (inactive) | 19.3 µM (inactive) | > 100 µM (inactive) | 13.9 µM (inactive) | – | – | 20.7 µM (inactive) | 22.6 µM (inactive) | – | – | – | – | – |
| C=CCNC(=O)N(CCC)CCCCC(NC(C)=O)C(=O)NCc1ccccc1 (stereo not drawn) | > 100 µM (inactive) | – | > 100 | – | – | – | – | > 100 µM (inactive) | – | > 100 µM (inactive) | – | > 100 µM (inactive) | – | – | > 100 µM (inactive) | > 100 µM (inactive) | 72.1 µM (inactive) | > 100 µM (inactive) | > 100 µM (inactive) | – |
| COc1ccc(C(CC(=O)c2ccc(O)cc2)C(C(=O)c2ccc(O)cc2)C(c2ccc(OC)cc2)C2C(=O)NC(=S)NC2=O)cc1 (stereo not drawn) | 11.1 µM (inactive) | 16.8 µM (inactive) | 21.2 | 26.7 µM (inactive) | 14.5 µM (inactive) | 20.7 µM (inactive) | 18.8 µM (inactive) | 18.1 µM (inactive) | 17.9 µM (inactive) | 20.7 µM (inactive) | 21.8 µM (inactive) | 16.2 µM (inactive) | 38 µM (inactive) | – | – | – | – | – | – | – |
| Cc1nnc(Nc2ccc(Cl)cc2)o1 | > 10 µM (inactive) | > 10 µM (inactive) | > 10 | > 10 µM (inactive) | > 10 µM (inactive) | > 10 µM (inactive) | > 10 µM (inactive) | > 10 µM (inactive) | > 10 µM (inactive) | – | > 10 µM (inactive) | > 10 µM (inactive) | – | > 10 µM (inactive) | > 10 µM (inactive) | – | – | – | – | – |
| CC(C)OP(=O)(OC(C)C)c1nn(-c2ccc([N+](=O)[O-])cc2)c(=N)s1 | > 100 µM (inactive) | > 100 µM (inactive) | > 100 | – | – | – | – | > 100 µM (inactive) | – | > 100 µM (inactive) | – | > 100 µM (inactive) | – | – | 65.5 µM (inactive) | – | – | > 100 µM (inactive) | > 100 µM (inactive) | > 100 µM (inactive) |
| O=C(N/N=C/C=C/c1ccccc1)[C@H](O)[C@@H](O)C(=O)N/N=C/C=C/c1ccccc1 | > 100 µM (inactive) | > 100 µM (inactive) | > 100 | – | – | – | – | > 100 µM (inactive) | – | > 100 µM (inactive) | – | > 100 µM (inactive) | > 100 µM (inactive) | – | > 100 µM (inactive) | > 100 µM (inactive) | – | > 100 µM (inactive) | > 100 µM (inactive) | > 100 µM (inactive) |
| CO[C@H]1C=C[C@@]23c4cc5c(cc4CO[C@]2(O)CN(C)[C@H]3C1)OCO5 | > 100 µM (inactive) | > 100 µM (inactive) | > 100 | > 100 µM (inactive) | > 100 µM (inactive) | > 100 µM (inactive) | > 100 µM (inactive) | > 100 µM (inactive) | > 100 µM (inactive) | > 100 µM (inactive) | > 100 µM (inactive) | > 100 µM (inactive) | – | > 100 µM (inactive) | > 100 µM (inactive) | – | – | – | – | – |
| CC1C(=O)N(c2ccccc2)NC12CCCc1ccccc12 (stereo not drawn) | > 100 µM (inactive) | > 100 µM (inactive) | > 100 | > 100 µM (inactive) | > 100 µM (inactive) | > 100 µM (inactive) | > 100 µM (inactive) | > 100 µM (inactive) | > 100 µM (inactive) | > 100 µM (inactive) | > 100 µM (inactive) | > 100 µM (inactive) | > 100 µM (inactive) | > 100 µM (inactive) | > 100 µM (inactive) | – | – | – | – | – |
| C=CC(=O)NC(O)(C(=O)OCC)C(F)(F)F (stereo not drawn) | > 100 µM (inactive) | > 100 µM (inactive) | > 100 | > 100 µM (inactive) | > 100 µM (inactive) | > 100 µM (inactive) | > 100 µM (inactive) | – | > 100 µM (inactive) | > 100 µM (inactive) | > 100 µM (inactive) | > 100 µM (inactive) | 64.4 µM (inactive) | > 100 µM (inactive) | > 100 µM (inactive) | – | – | – | – | – |
| CN(C)c1ccc(/C=C2/SC(=S)NC2=O)cc1 | > 100 µM (inactive) | 33.2 µM (inactive) | > 100 | > 100 µM (inactive) | > 100 µM (inactive) | 90.8 µM (inactive) | > 100 µM (inactive) | > 100 µM (inactive) | > 100 µM (inactive) | 21.9 µM (inactive) | > 100 µM (inactive) | > 100 µM (inactive) | > 100 µM (inactive) | > 100 µM (inactive) | > 100 µM (inactive) | – | – | – | – | – |
| Cc1[nH]c2ncn(/N=C/c3ccccc3O)c(=N)c2c1Cc1ccccc1 | 39.4 µM (inactive) | 43.4 µM (inactive) | 46.3 | 96.2 µM (inactive) | 33 µM (inactive) | 24.9 µM (inactive) | 26 µM (inactive) | 66.7 µM (inactive) | 40.6 µM (inactive) | > 100 µM (inactive) | 17.6 µM (inactive) | 42.3 µM (inactive) | – | > 100 µM (inactive) | 28.9 µM (inactive) | – | – | – | – | – |
| CC(SC(=S)N1CCOCC1)C(=O)Nc1nnc(-c2ccc(Cl)cc2)o1 (stereo not drawn) | < 0.01 µM (active) | 23.8 µM (inactive) | 20.7 | > 100 µM (inactive) | 32.3 µM (inactive) | 51.5 µM (inactive) | – | 35.2 µM (inactive) | 23.6 µM (inactive) | 48.6 µM (inactive) | 38.5 µM (inactive) | > 100 µM (inactive) | 8.07 µM (inactive) | 51.3 µM (inactive) | > 100 µM (inactive) | – | – | – | – | – |
| Cc1cc2c(ccc[n+]2[O-])[n+]([O-])c1 | > 100 µM (inactive) | > 100 µM (inactive) | > 100 | – | – | – | – | > 100 µM (inactive) | – | > 100 µM (inactive) | – | > 100 µM (inactive) | > 100 µM (inactive) | – | > 100 µM (inactive) | > 100 µM (inactive) | – | > 100 µM (inactive) | > 100 µM (inactive) | > 100 µM (inactive) |
| CCCCC1(N=[N+]=[N-])C(=O)c2cccc3c2N(CCC3)C1=O (stereo not drawn) | 91.6 µM (inactive) | > 100 µM (inactive) | > 100 | > 100 µM (inactive) | > 100 µM (inactive) | > 100 µM (inactive) | > 100 µM (inactive) | > 100 µM (inactive) | 31 µM (inactive) | > 100 µM (inactive) | > 100 µM (inactive) | > 100 µM (inactive) | > 100 µM (inactive) | > 100 µM (inactive) | > 100 µM (inactive) | – | – | – | – | – |
| COc1cc([C@@H]2c3cc4c(cc3[C@@H](c3c(O)cc(O)c5c3O[C@H](c3ccc(O)c(O)c3)[C@@H](O)C5)[C@H]3COC(=O)[C@H]23)OCO4)cc(OC)c1O | 63.2 µM (inactive) | 72.8 µM (inactive) | > 100 | > 100 µM (inactive) | > 100 µM (inactive) | > 100 µM (inactive) | 34.7 µM (inactive) | > 100 µM (inactive) | > 100 µM (inactive) | > 100 µM (inactive) | > 100 µM (inactive) | 89.1 µM (inactive) | – | > 100 µM (inactive) | > 100 µM (inactive) | – | – | – | – | – |
| O=C(O)c1ccc(NS(=O)(=O)Cc2ccccc2)cc1 | > 100 µM (inactive) | > 100 µM (inactive) | > 100 | > 100 µM (inactive) | > 100 µM (inactive) | > 100 µM (inactive) | > 100 µM (inactive) | > 100 µM (inactive) | > 100 µM (inactive) | > 100 µM (inactive) | > 100 µM (inactive) | > 100 µM (inactive) | > 100 µM (inactive) | > 100 µM (inactive) | > 100 µM (inactive) | – | – | – | – | – |
| COCCO [2-METHOXYETHANOL] | – | > 100 µM (inactive) | > 100 | – | > 100 µM (inactive) | – | – | > 100 µM (inactive) | > 100 µM (inactive) | > 100 µM (inactive) | – | > 100 µM (inactive) | – | – | > 100 µM (inactive) | – | – | > 100 µM (inactive) | – | – |
